According to patent US12686690B2, “Macrocyclic urea orexin receptor agonists” (Merck Sharp & Dohme LLC, priority 2020, dated 2026):

Biological target: T1, hOX2R (Homo sapiens, UniProt O43614)
T1 construct: expressed in transfected cells; host or cells: CHO cells (G418 selection)
T1 sequence (O43614 1-444): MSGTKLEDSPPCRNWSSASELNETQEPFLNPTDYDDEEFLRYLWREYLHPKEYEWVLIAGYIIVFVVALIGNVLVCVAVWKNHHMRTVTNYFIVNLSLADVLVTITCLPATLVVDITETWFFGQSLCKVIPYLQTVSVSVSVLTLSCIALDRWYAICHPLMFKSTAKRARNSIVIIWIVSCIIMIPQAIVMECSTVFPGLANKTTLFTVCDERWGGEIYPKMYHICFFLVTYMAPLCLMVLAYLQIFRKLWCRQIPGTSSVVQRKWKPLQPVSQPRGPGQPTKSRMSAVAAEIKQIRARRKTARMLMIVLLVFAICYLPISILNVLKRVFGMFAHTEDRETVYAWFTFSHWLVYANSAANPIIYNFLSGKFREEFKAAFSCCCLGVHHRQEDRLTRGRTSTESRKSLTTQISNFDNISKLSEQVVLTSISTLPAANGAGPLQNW
Experiment: hOX2R IPone assay (orexin receptor agonism)
Assay type: cell-based
Conditions: IPone readout; for hOX2R_Ipone max %act: maximal activation; for EC50: orexin receptor agonist, read-out: hOX2R_IPone EC50

| hOX2R_Ipone max %act [%] | EC50 [nM] | Compound |
| --- | --- | --- |
| 102 | 1.48 | CCN1C(=O)NC(CC(O)C(F)(F)F)CCCCCOc2cn3ncnc3c(n2)-c2cc(ncc2OC)C1C [Example 130, (3R,7R,E)-4-ethyl-25-methoxy-3-methyl-7-((R)-3,3,3-trifluoro-2-hydroxypropyl)-13-oxa-4,6-diaza-1(6,8)-[1,2,4]triazolo[1,5-a]pyrazina-2(4,2)-pyridinacyclotridecaphan-5-one] |
| 100.9 | 0.7 | CCN1C(=O)N[C@@H](CC(F)(F)F)CCCCCOc2nc(cn3ccnc23)-c2cc(ncc2OC)[C@H]1C [Example 114, (12R,16R)-13-ethyl-8-methoxy-12-methyl-16-(2,2,2-trifluoroethyl)-12,13,16,17,18,19,20,21-octahydro-6,23-(azeno)-11,7-(metheno)imidazo[2,1-c][1,4,10,13,15]oxatetraazacyclohenicosin-14(15H)-one] |
| 77.3 | 3010 | CCN1C(=O)N[C@@H](C(F)(F)F)CCCCOc2nc(cn3ncnc23)-c2cc(ncc2OC)C1C(F)(F)F (stereo partly drawn) [Example 37, (16R)-13-ethyl-8-methoxy-12,16-bis(trifluoromethyl)-12,13,15,16,17,18,19,20-octahydro-14H-6,22-(azeno)-11,7-(metheno) [1,2,4]triazolo[5,1-c][1,4,10,13,15]oxatetra-azacycloicosin-14-one] |
| 100.3 | 0.5 | CCN1C(=O)NC(CCC(F)(F)F)COCCCOc2nc(cn3ccnc23)-c2cc(ncc2OC)[C@H]1C (single isomer, unassigned) [Example 21B] |
| 101.2 | 1.2 | CCN1C(=O)N[C@@H](CCC(F)(F)F)CCCCOc2nc(cn3ccnc23)-c2cc(ncc2OC)C1C (stereo in doubt) [Example 40, (12S,16R)-13-ethyl-8-methoxy-12-methyl-16-(3,3,3-trifluoropropyl)-12,13,15,16,17,18,19,20-octahydro-14H-6,22-(azeno)-11,7-(metheno)imidazo[2,1-c][1,4,10,13,15]oxatetra-azacycloicosin-14-one] |
| 99.8 | 1.7 | CCN1C(=O)NC(CCC(F)F)CCCCCOc2nc(nn3ccnc23)-c2cc(ncc2OC)[C@H]1C (stereo partly drawn) [Example 202, (3R,E)-7-(3,3-difluoropropyl)-4-ethyl-25-methoxy-3-methyl-13-oxa-4,6-diaza-1(2,4)-imidazo[2,1-f][1,2,4]triazina-2(4,2)-pyridina-cyclotridecaphan-5-one] |
| 101.6 | 4.1 | CCN1C(=O)NC(CC2CC2(F)F)CCCCCOc2nc(cn3ccnc23)-c2cc(ncc2OC)[C@H]1C (single isomer, unassigned) [Example 59A] |
| 104.7 | 4.29 | CCN1C(=O)NC(CC(C)(F)F)CCCCCOc2nc(nn3ccnc23)-c2cc(ncc2OC)[C@H]1C (stereo partly drawn) [Example 207, (3R,E)-7-(2,2-difluoropropyl)-4-ethyl-25-methoxy-3-methyl-13-oxa-4,6-diaza-1(2,4)-imidazo[2,1-f][1,2,4]triazina-2(4,2)-pyridinacyclo-tridecaphan-5-one] |
| 100.1 | 38.4 | CCN1C(=O)NC(C2CCOCC2)CCCCCOc2nc(cn3ccnc23)-c2cc(ncc2OC)[C@H]1C (single isomer, unassigned) [Example 68A] |
| 100.5 | 62.5 | CCN1C(=O)NCCCCCCCOc2nc(cn3ccnc23)-c2cc(ncc2OC)[C@H]1C [Example 177, (R,E)-4-ethyl-25-methoxy-3-methyl-14-oxa-4,6-diaza-1(6,8)-imidazo[1,2-a]pyrazina-2(4,2)-pyridinacyclo-tetradecaphan-5-one] |
| 100.4 | 21.3 | CCN1C(=O)NC(CCC(F)(F)F)C(C)/C=C\COc2nc(cn3ccnc23)-c2cccc(c2)[C@H]1C (single isomer, unassigned) [Example 41B] |
| 99.27 | 416 | CCN1C(=O)NC(C)CCCCCOc2nc(cn3ccnc23)-c2cc(ncc2OC)[C@H]1C (single isomer, unassigned) [Example 9A] |
| 98.8 | 335 | CCN1C(=O)N[C@@H](CCC(F)(F)F)C/C=C\COc2nc(cn3ncnc23)-c2cc(ncc2OC)C1C(F)(F)F (stereo partly drawn) [Example 33, (16S,18Z)-13-ethyl-8-methoxy-12-(trifluoromethyl)-16-(3,3,3-trifluoropropyl)-12,13,15,16,17,20-hexahydro-14H-6,22-(azeno)-11,7-(metheno) [1,2,4]triazolo[5,1-c] [1,4,10,13,15]oxatetra-azacycloicosin-14-one] |
| 100.6 | 6.6 | CCN1C(=O)NC(CCC(F)(F)F)C(C)CCCOc2nc(cn3ccnc23)-c2cccc(c2)[C@H]1C (single isomer, unassigned) [Example 42A] |
| 100.7 | 1 | CCN1C(=O)N[C@@H](CCC(C)(F)F)CCCCCOc2nc(cn3ccnc23)-c2cc(ncc2OC)[C@H]1C [Example 83, (12R,16R)-16-(3,3-difluorobutyl)-13-ethyl-8-methoxy-12-methyl-12,13,16,17, 18,19,20,21-octa-hydro-6,23-(azeno)-11,7-(metheno) imidazo[2,1-c][1,4,9,13,15]oxatetraazacy-clohenicosin-14(15H)-one] |
| 108.6 | 0.51 | CCN1C(=O)NC(CC(C)(F)F)CCCCCOc2cn3ccnc3c(n2)-c2cc(ncc2OC)C1C [Example 151, (3R,7R,E)-7-(2,2-difluoropropyl)-4-ethyl-25-methoxy-3-methyl-13-oxa-4,6-diaza-1(6,8)-imidazo[1,2-a]pyrazina-2(4,2)-pyridinacyclotridecaphan-5-one] |
| 102.7 | 3.5 | CCC(CC)CC1CCCCCOc2nc(cn3ccnc23)-c2cc(ncc2OC)[C@@H](C)N(CC)C(=O)N1 (single isomer, unassigned) [Example 64A] |
| 111.8 | 3.36 | CCN1C(=O)N[C@@H](CCC(C)(F)F)CCOCCOc2nc(cc3ncnn23)-c2cc(ncc2OC)[C@H]1C [Example 169, (3R,E)-7-(3,3-difluorobutyl)-4-ethyl-25-methoxy-3-methyl-10,13-dioxa-4,6-diaza-1(7,5)-[1,2,4]triazolo[1,5-c]pyrimidina-2(4,2)-pyridinacyclotridecaphan-5-one] |
| 102 | 3.87 | C[C@@H]1c2cc(ccn2)-c2cn3ccnc3c(n2)OCCCCC[C@H](CCC(F)(F)F)NC(=O)N1C [Example 158, (3R,7R,E)-3,4-dimethyl-7-(3,3,3-trifluoropropyl)-13-oxa-4,6-diaza-1(6,8)-imidazo[1,2-a]pyrazina-2(4,2)-pyridinacyclotridecaphan-5-one] |
| 101.1 | 64.1 | CCN1C(=O)N[C@@H](CCC(F)(F)F)CCCCCOc2nc(cn3ccnc23)C2=NC=C(O2)C1C (single isomer, unassigned) [Example 104B] |
| 97.2 | 868 | CCN1C(=O)N[C@H](C(F)(F)F)CCCCCOc2nc(cn3ccnc23)-c2cc(ncc2OC)[C@H]1C [Example 115, (12R,16S)-13-ethyl-8-methoxy-12-methyl-16-(trifluoromethyl)-12,13,16,17,18,19,20,21-octahydro-6,23-(azeno)-11,7-(metheno)imidazo[2,1-c][1,4,10,13,15]oxatetraazacyclohenicosin-14(15H)-one] |
| 99.3 | 1 | CCN1C(=O)N[C@@H](CCC(F)(F)F)CCCCCOc2nc(cn3ccnc23)-c2cc(ncc2C)[C@H]1C [Example 79, (12R,16R)-13-ethyl-8,12-dimethyl-16-(3,3,3-trifluoro-propyl)-12,13,16,17, 18,19,20,21-octa-hydro-6,23-(azeno)-11,7-(metheno) imidazo[2,1-c][1,4,10, 13,15]oxatetraazacyclo-henicosin-14(15H)-one] |
| 101.1 | 1.4 | CCN1C(=O)N[C@@H](CCC(F)(F)F)CCCCOc2nc(cn3ccnc23)-c2cc(cnc2OC)[C@H]1C [Example 27, (3R,7R,E)-4-ethyl-22-methoxy-3-methyl-7-(3,3,3-trifluoropropyl)-12-oxa-4,6-diaza-1(6,8)-imidazo[1,2-a]pyrazina-2(3,5)-pyridinacyclododecaphan-5-one] |
| 102.3 | 0.7 | CCN1C(=O)N[C@@H](CCC(F)(F)F)CCCCCOc2nc(cc3ccnn23)-c2cc(ncc2OC)C1C (single isomer, unassigned) [Example 88B] |

| Compound | hOX2R_Ipone max %act [%] | EC50 [nM] |
| --- | --- | --- |
| CCN1C(=O)NCCOCCOc2nc(cn3ccnc23)-c2cccc(c2)[C@H]1C [Example 2, (12R)-13-ethyl-12-methyl-12,13,16,17,19,20-hexahydro-6,22-(azeno)-11,7-(metheno)imidazo[1,2-o][1,18,4,6,15]dioxatriaza-cycloicosin-14(15H)-one] | 64.8 | 813 |
| CCN1C(=O)NC(C)CCCCCOc2nc(cn3ccnc23)-c2cccc(c2)[C@H]1C (mixture of isomers) [Example 18, (12R)-13-ethyl-12,16-dimethyl-12,13,16,17,18,19, 20,21-octahydro-6,23-(azeno)-11,7-(metheno) imidazo[2,1-c][1,4,13,15]oxatriaza-cyclohenicosin-14(15H)-one] | 98.6 | 26.6 |
